{
  "source": "patent US9918452B2",
  "about": "“Method and apparatus for controlling herbivore fowl populations” (2345422 Ontario Inc., priority 2013, dated 2018)",
  "test_system": "Canada Geese",
  "assay": "Repellent-adulterated feed plus non-adulterated attractant feed in a recreational area",
  "type": "in vivo",
  "source_text": "Owing to the problems encountered with both wide-scale repellent spraying and the use of repellent-treated feed on its own, a new approach to controlling the goose population at the site of Example 1 was developed. In this new approach, both repellent-adulterated feed in the form of cracked corn treated with methyl anthranilate, and non-adulterated feed (also in the form of cracked corn) was used.\nIn this approach to controlling the goose population at the site of Example 1, a commercially available animal feeder with a 200 lb. capacity tripod mounted hopper and SOLAR ELITE® dispensing head were obtained from On Time Wildlife Feeders (2488 Hwy 33, Ruston, La. 71270, U.S.A.). The feeder was modified as described in Example 5 to become a repellent station. The repellent reservoir was filled with an 8% solution of methyl anthranilate solution (prepared using fifty-five percent of a commercially available REJEX-IT® solution and forty-five percent water) and the flow rate from the repellent reservoir was adjusted to be approximately 0.0025 liters per second. The hopper of the repellent station was then filled with cracked corn.\nIn FIG. 1a a portion of the site described in Example 1 is depicted. […]",
  "data": [
    {"smiles": "COC(=O)c1ccccc1N", "note": "[methyl anthranilate]", "values": [
      {"measurement": "acceptance of repellent-adulterated cracked corn by geese", "setting": "8% methyl anthranilate solution sprayed on cracked corn at the repellent station, approx. 0.0025 liters per second", "value": "intolerable"},
      {"measurement": "return of geese to the grassy area where they are not desired", "setting": "repellent station with 8% methyl anthranilate solution plus unadulterated cracked corn on paved area, length of trial (six weeks)", "value": "did not return to grassy area 100"}
    ]}
  ]
}
